Measured values as given in patent publication US12213985B2, “Oral cannabinoid formulations” (Jazz Pharmaceuticals Research UK Limited, priority 2016, dated 2025).
Where a SMILES comes first, the peptide text is derived from it.

Columns and labels:
[1] = derived from FDA website; cited from earlier work
[2] = Lowest ethanol concentration to solubilise Advantame, storage and observation for precipitation (ET03/015); format: physicochemical; settings: Advantame 0.0025% w/v in sesame oil formulation
Protocol: An experiment (ET03/015) was carried out to determine the lowest ethanol concentration required to solubilise Advantame. Table 3 details the batches made with various ethanol concentrations ranging from 0.5% to 3.0% v/v.
These batches were stored at 25° C./60% RH and 40° C./75% RH for up to 4 weeks and observed for any signs of precipitation. There was no precipitation observed over the period assessed. Therefore it was concluded that Advantame can be used as a sweetener and can be solubilised at ethanol concentration of at least as low as 0.5% v/v. i.e. the concentration of ethanol required in the formulation can be reduced by a factor of 20 compared to a sucralose containing formulation.

[3] = Physical stability of Neotame formulations, open bottles standing 2 weeks; format: physicochemical
Protocol: The 25 mg/ml and 100 mg/ml batches were tested for physical stability by opening the bottles and allowing them to stand for 2 weeks to let the ethanol evaporate. This was done as a worst case in-use scenario where the bottle is repeatedly opened and closed multiple times during use. The batches were monitored for any signs of precipitation and the ethanol content measured.

[4] = Miscibility of alternative solvents with sesame oil; format: physicochemical; settings: range of concentrations (0.5-10%) tested

| Structure (SMILES) | Acceptable Daily Intake [1] [mg/kg/day] | also measured |
| --- | --- | --- |
| COC(=O)[C@H](Cc1ccccc1)NC(=O)[C@H](CC(=O)O)NCCCc1ccc(OC)c(O)c1 [Advantame, N—[N-3-(3-hydroxy-4-methoxyphenyl)propyl-α-L-aspartyl]-L-phenylalanine 1-methyl ester] | 32.8 | ethanol concentration at which the sweetener can be solubilised [2]: ≤ 0.5 % v/v |
| COC(=O)[C@H](Cc1ccccc1)NC(=O)[C@@H](N)CC(=O)O [Aspartame] (H-Asp-Phe-OMe) | 50 |  |
| COC(=O)[C@H](Cc1ccccc1)NC(=O)[C@H](CC(=O)O)NCCC(C)(C)C [Neotame, N—[N-(3,3-dimethylbutyl)-L-α-aspartyl]-L-phenylalanine 1-methyl ester] | 0.3 | concentration at which Neotame can be physically solubilised ([3]; in ethanol): up to 0.01 % w/v; solubility in ethanol ([3]; room temperature): freely soluble |
| O.O.O=C1NS(=O)(=O)c2ccccc21 [Saccharin Dihydrate] | 15 |  |
| O=C1NS(=O)(=O)c2ccccc21 [Saccharin] | 15 |  |
| OC[C@H]1O[C@H](O[C@]2(CCl)O[C@H](CCl)[C@@H](O)[C@@H]2O)[C@H](O)[C@@H](O)[C@H]1Cl [Sucralose, reference compound] | 5 |  |
| OCC(O)CO [glycerin] |  | miscibility with sesame oil [4]: not satisfactory |
| CC(O)CO (centres unmarked) [propylene glycol] |  | miscibility with sesame oil [4]: not satisfactory |
